Consider one molecule from patent US6395748B2, “Tropane-derivatives, their preparation and use” (NeuroSearch A/S, priority 1996, dated 2002).

For orientation: IC50 means the concentration that gives 50% inhibition. A high value points to a need for much substance.

One assay addresses T1, dopamine transporter (Rattus norvegicus, UniProt P23977).
T1 construct: Corpi striati from male Wistar rats (150-200 g) are homogenized; from tissue; host or cells: rat striatal synaptosomes (P2 pellet)
The assay is described as follows: In vitro inhibition of 3H-dopamine (3H-DA) uptake in striatal synaptosomes. It counts as biochemical. The procedure:
Monoamine oxidase activity will be inhibited in the presence of pargyline. The homogenate is centrifuged at 1000×g for 10 min. The resulting supernatant is then centrifuged at 27,000×g for 50 min and the supernatant is discarded.
After incubation the samples are poured directly onto Whatman GF/C glass fibre filters under suction. The filters are then washed three times with 5 ml of ice-cold 0.9% (w/v) NaCl solution. The amount of radioactivity on the filters is determined by conventional liquid scintillation counting. Specific uptake is calculated as the difference between total uptake and non-specific uptake.

In the next assay the target is T2, serotonin transporter (Rattus norvegicus, UniProt P31652).
T2 construct: Cerebral cortices from male Wistar rats (150-200 g) are homogenized; from tissue; host or cells: rat cerebral cortex synaptosomes (P2 pellet)
T2 sequence (P31652 whole entry): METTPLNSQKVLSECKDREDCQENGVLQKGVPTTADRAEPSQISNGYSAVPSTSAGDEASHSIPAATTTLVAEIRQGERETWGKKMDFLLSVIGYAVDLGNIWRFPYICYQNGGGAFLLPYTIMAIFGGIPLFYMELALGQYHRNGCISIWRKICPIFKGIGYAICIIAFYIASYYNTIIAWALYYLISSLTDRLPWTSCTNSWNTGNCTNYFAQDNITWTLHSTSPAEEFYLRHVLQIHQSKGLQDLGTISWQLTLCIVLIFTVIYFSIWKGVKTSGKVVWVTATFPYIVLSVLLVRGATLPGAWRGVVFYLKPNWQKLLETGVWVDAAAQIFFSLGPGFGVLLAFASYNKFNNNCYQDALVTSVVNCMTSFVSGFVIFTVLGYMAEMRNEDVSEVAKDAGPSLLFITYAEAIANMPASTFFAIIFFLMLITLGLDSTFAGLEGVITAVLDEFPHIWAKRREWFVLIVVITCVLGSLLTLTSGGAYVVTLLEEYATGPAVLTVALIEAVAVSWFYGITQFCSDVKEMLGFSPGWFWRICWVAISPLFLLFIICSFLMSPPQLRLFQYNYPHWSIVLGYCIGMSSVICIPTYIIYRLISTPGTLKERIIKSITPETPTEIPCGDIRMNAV
In words: In vitro inhibition of 3H-5-hydroxytryptamine (3H-5-HT, serotonin) uptake in cortical synaptosomes. It counts as biochemical. The protocol:
Tissue preparation: Preparations are performed at 0-4° C. unless otherwise indicated. […] Monoamine oxidase activity will be inhibited in the presence of pargyline. The homogenate is centrifuged at 1000×g for 10 min.
Non-specific uptake is determined using citalopram (1 μM, final concentration). After incubation the samples are poured directly onto Whatman GF/C glass fibre filters under suction. The filters are then washed three times with 5 ml of ice-cold 0.9% (w/v) NaCl solution. The amount of radioactivity on the filters is determined by conventional liquid scintillation counting. Specific uptake is calculated as the difference between total uptake and non-specific uptake.

T1 sequence (P23977 whole entry): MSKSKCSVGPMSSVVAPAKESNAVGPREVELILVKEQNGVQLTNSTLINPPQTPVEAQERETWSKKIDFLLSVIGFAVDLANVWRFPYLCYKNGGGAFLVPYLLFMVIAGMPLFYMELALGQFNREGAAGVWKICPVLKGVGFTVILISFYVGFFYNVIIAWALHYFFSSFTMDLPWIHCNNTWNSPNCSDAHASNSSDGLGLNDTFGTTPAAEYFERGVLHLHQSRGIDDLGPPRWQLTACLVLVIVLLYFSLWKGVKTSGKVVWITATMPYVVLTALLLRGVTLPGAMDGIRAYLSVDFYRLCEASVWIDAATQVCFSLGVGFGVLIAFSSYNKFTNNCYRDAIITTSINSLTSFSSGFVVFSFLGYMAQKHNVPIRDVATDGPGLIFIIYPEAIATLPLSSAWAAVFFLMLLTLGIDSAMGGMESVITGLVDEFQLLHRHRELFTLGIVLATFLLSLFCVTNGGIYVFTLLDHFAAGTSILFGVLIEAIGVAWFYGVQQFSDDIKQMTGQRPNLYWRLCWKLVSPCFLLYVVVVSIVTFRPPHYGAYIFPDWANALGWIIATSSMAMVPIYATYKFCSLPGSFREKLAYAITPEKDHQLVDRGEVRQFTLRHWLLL

For `CN1[C@H]2CC[C@@H]1[C@H](CSc1ccccc1)[C@@H](c1ccc(Cl)c(Cl)c1)C2` [(1R,2R,3S)-2-phenylthiomethyl-3-(3,4-dichlorophenyl)-tropane], the 50% inhibitory concentration (IC50) on dopamine transporter came to 4.3 nM; at serotonin transporter, 9.2 nM.
